“Also recorded” adds a separate entry of the source.
Tested on: small intestine bioptic fragments of patients with untreated celiac disease
Assay: Organ culture of small intestine biopsies of untreated celiac patients (TUNEL, CD25)
Format: cell-based, human
Conditions: 40 ug/ml, 24 hours organ culture
Procedure: The study was performed in a blind fashion. For this study a organ culture model of celiac, which is a widely used and validated to explore gluten toxicity and mucosal damage in celiac disease was utilized. For the purpose of this project small intestine bioptic fragments of patients with untreated celiac disease were used. Biopsies of untreated celiac patients are ideal to monitor aspects of mucosal damage including induction of epithelial apoptosis and increase of mucosal inflammation.
Twelve adult patients, who were diagnosed as potential untreated celiac patients, were enrolled. Their disease was confirmed by clinical signs, the presence of high titres of anti-tissue transglutaminase and histological analysis of small intestine biopsies.
Organ cultures were performed using standard methods described in Maiuri, L. et al, Gastroenterology 110, 1368-1378. (1996). Briefly a small biopsy fragment (around 1 mm×1 mm) was put on stainless steel mesh and cultured in medium supplemented with the different compounds for a period of 24 hours. The standard positive and negative controls used in studies involving celiac patients and in vitro challenge of biopsies were utilized. The positive control was 1 mg/ml of gliadin peptic-tryptic digest. The negative control was the medium alone. All the compounds to be tested were used at the final concentration of 40 ug/ml. […]
Antigen detection on frozen tissue sections was performed by immunohistochemistry as described in Maiuri, L. et al. Blockage of T-cell costimulation inhibits T-cell action in Celiac disease. […] At least 5 slides for each sample were blindly evaluated. […]
The total number of TUNEL+ enterocytes was referred as percentage of enterocytes. The total number of CD25+ cells in the lamina propria was determined within a standard reference area of 1 mm^2. The counts were performed at a microscope with a calibrated ocular graticule aligned parallel to the muscolaris mucosae and independently analysed by two observers; the results were compared afterwards.

For CC(=O)N[C@@H](CCC(N)=O)C(=O)O [N-acetyl-L-glutamine], the “Induction of epithelial apoptosis (TUNEL) and sub-epithelial inflammation (CD25)” value was “did not induce any effect”, the “Trophic effect on the biopsies of untreated celiac patients” value was “clear trophic effect; also recorded: appears to improve the overall condition of the mucosa even compared to medium alone” and the “Trophic effect on the biopsies of untreated celiac patients” value (listed as N-acetyl-glutamine) was “clear trophic effect”.

Reference: US20030134851A1, “Methods and compositions for providing glutamine” (priority 2001, published 2003)
